Source: patent publication US20220031607A1, “INJECTION COMPOSITION CONTAINING FAB I INHIBITOR, AND PREPARATION METHOD THEREFOR” (CRYSTALGENOMICS, INC., priority 2019, published 2022)

Key:
[1] = Evaluation of water solubility according to pH; assay type: physicochemical; conditions: thermodynamic from solid
Procedure: Experimental Example 1-1: […] After completion of the stirring, insoluble substances that may remain were removed by first centrifugation and second filtration with 0.22 μm filter. The substances were diluted with organic solvent methanol and analyzed by HPLC for […] of the solubility. […] As the pH increases, the solubility tends to decrease rapidly.

[2] = Solubility in excipients and solvents by HPLC analysis; assay type: physicochemical; conditions: for solubility at 1 h: thermodynamic from solid
Procedure: The excipients approved as pharmaceutical additives and solvents that can be used for future process studies were selected as shown in Table 1. A small amount of the compound of formula 1 was added and dissolved. The addition operation was repeated until completely dissolved. Finally, it was stirred at room temperature for one hour and then filtered to determine the concentration of the compound of formula 1 dissolved in the filtrate through HPLC analysis.
20 μL of each the test solution and the standard solution were tested according to a liquid chromatography method (HPLC) of general test methods of the Korean Pharmacopoeia under the following conditions, and the peak area of the main component of each solution was measured.
Operating Condition and Calculation
Detector: UV spectrophotometer (measurement wavelength 286 nm)
Column: Aegispak C18-L (4.6 mm×250 mm, 5 μm) column
Column temperature: 25° C.
Mobile phase: Acetonitrile:water=3:2

[3] = Evaluation of excipient suitability (related substances on storage at 60° C.); assay type: physicochemical; set-up: Total related substances, Initial value: unit not given here; conditions: for Total related substances, Severe (1 week): 60° C.
Procedure: The resulting product was stored at 60° C. and the stability of the compound of formula 1 was measured. The measurement of related substances was evaluated according to the guidelines for the evaluation of related substances of the Ministry of Food and Drug Safety, and the results are shown in Table 2.

[4] = Stability after dilution of prepared freeze-dried powder in physiological saline; assay type: physicochemical; conditions: 16% HP-beta-cyclodextrin solution, 60 °C, aqueous with cosolvent or surfactant or cyclodextrin, thermodynamic from solid; in 16% HP-beta-cyclodextrin; read-out: highest solubility
Procedure: Hydroxypropyl beta-cyclodextrin (HP-beta-cyclodextrin) was dissolved in distilled water for injection under stirring at room temperature and heated to 60° C., and the compound of formula 1 was added thereto, stirred and enclosed therein. The liquid injection was sterilized and filtered through 0.22 μm filter paper. The filtered injection solution was filled into a glass vial, cooled at −80° C., and freeze-dried to commercialize.

[5] = test system: Methicillin-resistant Staphylococcus aureus (MRSA) strains; test: Drug susceptibility (MIC) of MRSA clinical isolates; assay type: cell-based; conditions: Methicillin-resistant, n = 100
Procedure: In order to verify the inhibitory effect of the compound of formula 1 on antibiotic-resistant strains, drug susceptibility was evaluated by treating the compound of formula 1 with Staphylococcus aureus phenotype isolated from each patient. In an in vitro test for antibiotic development, the most important result can be MIC90 (minimum inhibitory concentration required to inhibit the growth of 90% of the total bacterial population). […] Appelbaum at Hershey Hospital who is recognized for its authority in the field of anti-infection worldwide.

[6] = test system: Staphylococcus aureus ATCC 29213 (MSSA, standard strain); test: Susceptibility test (MIC), standard strain; assay type: cell-based; conditions: Staphylococcus aureus ATCC 29213; read-out: MIC
Procedure: (§1) For the compound of formula 1, pharmacokinetic/pharmacodynamic experiments were conducted using a mouse infection model. To this end, experiments were conducted with Staphylococcus aureus ATCC 29213 (MSSA, standard strain) and 13B-382 (MRSA, clinical strain). As a medium, Mueller-Hinton broth or Cation-adjusted Mueller-Hinton broth was used. For the susceptibility test (minimum inhibitory concentration (MIC)), the compound of formula 1 was used.

[7] = test system: Staphylococcus aureus 13B-382 (MRSA, clinical strain); test: Susceptibility test (MIC), clinical strain; assay type: cell-based; conditions: Staphylococcus aureus 13B-382, read-out: MIC
Procedure: as §1

[8] = mixed with Beta-Hydroxypropyl cyclodextrin

solubility at 2 h ([1]; aqueous buffer, aqueous solution pH 3, room temperature): 6 µg/mL
solubility at 2 h ([1]; aqueous buffer, aqueous solution pH 7, room temperature): 2.5 µg/mL
solubility at 2 h ([1]; aqueous solutions, aqueous buffer, pH 4 to 8): 2 to 5 µg/mL
solubility at 2 h ([1]; simulated gastric fluid, aqueous solution pH 1.2, room temperature): ~1000 µg/mL
solubility at 1 h ([2]; Capryol 90, oil or lipid, in Capryol 90): 2900 µg/mL
solubility at 1 h ([2]; DMSO, organic solvent or mixture, in DMSO): 180000 µg/mL
solubility at 1 h ([2]; Labrasol, aqueous with cosolvent or surfactant or cyclodextrin, in Labrasol): > 20000 µg/mL
solubility at 1 h ([2]; PEG 300, organic solvent or mixture, in PEG 300): > 20000 µg/mL
solubility at 1 h ([2]; Peceol, oil or lipid, in Peceol): 4400 µg/mL
solubility at 1 h ([2]; Solutol HS 15, aqueous with cosolvent or surfactant or cyclodextrin, in Solutol HS 15): ≥ 10000 µg/mL
solubility at 1 h ([2]; Tween 20, aqueous with cosolvent or surfactant or cyclodextrin, in Tween 20): > 20000 µg/mL
solubility at 1 h ([2]; Tween 80, aqueous with cosolvent or surfactant or cyclodextrin, in Tween 80): ≥ 10000 µg/mL
solubility at 1 h ([2]; glycerol, organic solvent or mixture, in Glycerol): 260 µg/mL
Solubility ([2]; in Ethanol): 3650 µg/mL
Solubility ([2]; in Methanol): 6140 µg/mL
Solubility ([2]; in Propylene glycol): 3800 µg/mL
solubility at 1 h ([2]; methyl chloride, organic solvent or mixture, in Methyl chloride): ~60000 µg/mL
solubility at 1 h ([2]; oleic acid, oil or lipid, in Oleic acid): 2000 µg/mL
solubility at 1 h ([2]; pH 2.0 solution, pH 2, simulated gastric fluid, in pH 2.0): 440 µg/mL
solubility at 1 h ([2]; soybean oil, oil or lipid, in Soybean Oil): ~8500 µg/mL
Total related substances, Initial value ([3]; Compound of formula 1 alone): 0.5
Total related substances, Severe (1 week) ([3]; Compound of formula 1 alone): 0.5
Total related substances, Initial value [3, 8]: 0.5
Total related substances, Severe (1 week) [3, 8]: 0.6
Total related substances, Initial value ([3]; mixed with Cremophor 40): 1.6
Total related substances, Severe (1 week) ([3]; mixed with Cremophor 40): 3.4
Total related substances, Initial value ([3]; mixed with Glycerin): 1.4
Total related substances, Severe (1 week) ([3]; mixed with Glycerin): 1.1
Total related substances, Initial value ([3]; mixed with Labrasol): 6.2
Total related substances, Initial value ([3]; mixed with Oleic acid): 6.2
Total related substances, Initial value ([3]; mixed with Olive oil): 1.1
Total related substances, Severe (1 week) ([3]; mixed with Olive oil): 0.7
Total related substances, Initial value ([3]; mixed with PEG): 1.1
Total related substances, Initial value ([3]; mixed with PEG 400): 6.4
Total related substances, Severe (1 week) ([3]; mixed with PEG 400): 9.8
Total related substances, Initial value ([3]; mixed with PEG 20,000): 4.2
Total related substances, Severe (1 week) ([3]; mixed with PEG 20,000): 1
Total related substances, Severe (1 week) ([3]; mixed with PEG): 7
Total related substances, Initial value ([3]; mixed with PVA): 0.9
Total related substances, Initial value ([3]; mixed with PVA 2,000): 0.9
Total related substances, Severe (1 week) ([3]; mixed with PVA 2,000): 0.6
Total related substances, Severe (1 week) ([3]; mixed with PVA): 0.6
Total related substances, Initial value ([3]; mixed with Poloxamer 407): 0.9
Total related substances, Severe (1 week) ([3]; mixed with Poloxamer 407): 0.5
Total related substances, Initial value ([3]; mixed with Propylene glycol): 1
Total related substances, Severe (1 week) ([3]; mixed with Propylene glycol): 5
Total related substances, Initial value ([3]; mixed with Solutol HS 15): 0.7
Total related substances, Severe (1 week) ([3]; mixed with Solutol HS 15): 3.8
Total related substances, Initial value ([3]; mixed with Soybean Oil): 1.1
Total related substances, Severe (1 week) ([3]; mixed with Soybean Oil): 1.4
Total related substances, Initial value ([3]; mixed with Transcutol HP): 1.9
Total related substances, Severe (1 week) ([3]; mixed with Transcutol HP): 9.1
Total related substances, Initial value ([3]; mixed with Tween 80): 1.2
Total related substances, Severe (1 week) ([3]; mixed with Tween 80): 2.6
Stability with excipients ([3]; with soybean oil, olive oil, Tween 80, PEG 20000, PVA, PVA 2000, poloxamer 407, beta-hydroxypropyl cyclodextrin, glycerin): relatively stable
Solubility [4]: 3000 µg/mL
MIC Range [5]: 0.06 to 1.0 µg/mL
MIC50 ([5]; Staphylococcus aureus, MRSA, read-out: MIC50): 0.25 µg/mL
MIC90 ([5]; Staphylococcus aureus, MRSA, read-out: MIC90): 0.25 µg/mL
MIC [6]: 0.25 µg/mL
MIC [7]: 0.25 µg/mL
Compound: Cc1c(N)cccc1Cn1ccc(OCCc2cccs2)cc1=O [Compound of formula 1, 1-(3-amino-2-methylbenzyl)-4-(2-thiophen-2-yl-ethoxy)-1H-pyridin-2-one]
